Assay results reported in patent US20260258036A1, “INHIBITORS OF HUMAN ALDOSTERONE SYNTHASE (CYP11B2)” («TARGET MEDICALS» LIMITED LIABILITY COMPANY, priority 2022, published 2026).

Molecular target: T1, recombinant CYP11B2 (Homo sapiens, UniProt P19099)
T1 sequence (P19099 25-503): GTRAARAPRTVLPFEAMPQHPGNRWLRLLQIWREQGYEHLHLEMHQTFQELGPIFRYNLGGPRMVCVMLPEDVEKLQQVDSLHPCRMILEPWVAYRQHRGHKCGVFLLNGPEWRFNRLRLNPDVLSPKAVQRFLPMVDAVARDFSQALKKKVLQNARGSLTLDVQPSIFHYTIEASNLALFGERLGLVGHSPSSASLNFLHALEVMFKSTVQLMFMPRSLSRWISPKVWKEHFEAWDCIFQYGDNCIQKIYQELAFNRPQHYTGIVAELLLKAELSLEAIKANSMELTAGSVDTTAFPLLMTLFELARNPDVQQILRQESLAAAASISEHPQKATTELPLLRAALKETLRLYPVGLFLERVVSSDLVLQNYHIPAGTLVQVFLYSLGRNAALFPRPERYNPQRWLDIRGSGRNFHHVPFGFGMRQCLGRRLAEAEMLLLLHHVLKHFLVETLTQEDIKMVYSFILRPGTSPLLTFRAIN
Assay: Inhibition of CYP11B2 activity in a reconstructed enzyme system (HPLC with UV detector)
Type: biochemical
Conditions: compounds 1_xx; test compound final concentration ≤2 μM; corticosterone substrate; 30 minutes at 37° C.; read-out: Level of CYP11B2 activity inhibition
Protocol: The authors of the present invention investigated the activity of the compounds according to the invention as inhibitors of CYP11 B2 when analyzed in a reconstructed system containing 0.5 μm recombinant CYP1 1B2, 0.3 μm human adrenodoxin reductase, 2 μm human adrenodoxin, 100 μm corticosterone as a control reaction to detect the formation of a product with using an HPLC system with a UV detector. The test compound is added to the reaction mixture to a final concentration of ≤2 μM. The concentrated protein mixture was diluted with buffer to a final volume of 0.5 ml, pre-incubated for 10 min at 37° C., followed by the addition of the substrate. Reactions are initiated by adding NADPH (nicotinamide adenine dinucleotide phosphate) to a final concentration of 0.25 mM with a regenerating system (glucose-6-phosphate and glucose-6-phosphate dehydrogenase) in 25 mM potassium phosphate buffer, pH 7.4, containing 0.1 mM DTT (dithiothreitol), 0.1% Tween-20.4 mM MgCl2 and incubated at 37° C. After 30 minutes of incubation, the reaction is stopped by adding 5 ml of dichloromethane. The organic phase is isolated by centrifugation, evaporation, dissolution in ethanol and transferred to a vial for HPLC studies. A C18 Luna 100 Å 250×4, 6 mm column was used on an Agilent Technologies 1200 series instrument (USA) with ethanol as the mobile phase.
Activity (a) is calculated as the amount of product in nmol per minute per 1 nmol of CYP.
where k is the correction factor (k=1 is used as the molar extinction coefficients of steroid substrates and products similar at a detection wavelength of 254 nm), As is the peak area of the substrate, cs is the concentration of the substrate, Ap is the peak area of the product, ce is the concentration of CYP (cytochrome P450), t is the reaction time.
The level of inhibition of CYP11 B2 activity is expressed as a percentage, where 0% is defined as no inhibition in reactions without test compound and 100% is absolute inhibition by test compound.

SMILES	inhibition at 2 µM [%]
CN1CCN(c2c(F)cc(S(=O)(=O)n3ccc4c(-c5ccc(C#N)nc5)cncc43)cc2F)CC1 [Compound 1_28, 5-(1-((3,5-difluoro-4-(4-methylpiperazin-1-yl)phenyl)sulfonyl)-1H-pyrrolo[2,3-c]pyridin-4-yl)picolinonitrile]	50 to 100
CN1CCN(c2c(F)cc(S(=O)(=O)n3ccc4c(-c5ncc(F)cn5)cncc43)cc2F)CC1 [Compound 1_29, 1-((3,5-difluoro-4-(4-methylpiperazin-1-yl)phenyl)sulfonyl)-4-(5-fluoropyrimidin-2-yl)-1H-pyrrolo[2,3-c]pyridine]	50 to 100
CNc1cnc(-c2cncc3c2ccn3S(=O)(=O)c2cc(F)c(N3CCN(C)CC3)c(F)c2)cn1 [Compound 1_30, 5-(1-((3,5-difluoro-4-(4-methylpiperazin-1-yl)phenyl)sulfonyl)-1H-pyrrolo[2,3-c]pyridin-4-yl)-N-methylpyrazin-2-amine]	1 to 100
CN1CCN(c2c(F)cc(S(=O)(=O)n3ccc4c(-c5ccc(C6CC6)cn5)cncc43)cc2F)CC1 [Compound 1_31, 4-(5-cyclopropylpyridin-2-yl)-1-((3,5-difluoro-4-(4-methylpiperazin-1-yl)phenyl)sulfonyl)-1H-pyrrolo[2,3-c]pyridine]	50 to 100
Cc1cnc(-c2cncc3c2ccn3S(=O)(=O)c2cc(F)c(N)c(F)c2)cn1 [Compound 1_32, 2,6-difluoro-4-((4-(5-methylpyrazin-2-yl)-1H-pyrrolo[2,3-c]pyridin-1-yl)sulfonyl)aniline]	50 to 100
Cc1ccc(-c2cncc3c2ccn3S(=O)(=O)c2cc(F)c(N(C)C)c(F)c2)nc1 [Compound 1_33, 2,6-difluoro-N,N-dimethyl-4-((4-(5-methylpyridin-2-yl)-1H-pyrrolo[2,3-c]pyridin-1-yl)sulfonyl)aniline]	50 to 100

Same assay, conditions: compounds 2_xx, 3_xx, 4_01; test compound final concentration ≤2 μM; corticosterone substrate; 30 minutes at 37° C.; read-out: Level of CYP11B2 activity inhibition

SMILES	inhibition at 2 µM [%]
CN1CCN(c2c(F)cc(S(=O)(=O)n3ccc4c(-c5ccccn5)cncc43)cc2F)CC1=O [Compound 2_01, 4-(2,6-difluoro-4-((4-(pyridin-2-yl)-1H-pyrrolo[2,3-c]pyridin-1-yl)sulfonyl)phenyl)-1-methylpiperazin-2-one]	35 to 100
O=S(=O)(c1cc(F)c(N2CCN(CC3CC3)CC2)c(F)c1)n1ccc2c(-c3ccccn3)cncc21 [Compound 2_02, 1-((4-(4-(cyclopropylmethyl)piperazin-1-yl)-3,5-difluorophenyl)sulfonyl)-4-(pyridin-2-yl)-1H-pyrrolo[2,3-c]pyridine]	35 to 100
CN1CC2CN(c3c(F)cc(S(=O)(=O)n4ccc5c(-c6ccc(C(=O)NC(C)(C)C)nc6)cncc54)cc3F)CC2C1 (stereo not shown) [Compound 2_03, N-(tert-butyl)-5-(1-((3,5-difluoro-4-(5-methylhexahydropyrrolo[3,4-c]pyrrol-2(1H)-yl)phenyl)sulfonyl)-1H-pyrrolo[2,3-c]pyridin-4-yl)picolinamide]	35 to 100
O=S(=O)(c1cc(F)c(N2CCNCC2)c(F)c1)n1ccc2c(-c3ccccn3)cncc21 [Compound 3_01, 1-((3,5-difluoro-4-(piperazin-1-yl)phenyl)sulfonyl)-4-(pyridin-2-yl)-1H-pyrrolo[2,3-c]pyridine]	20 to 100
CNc1ccc(-c2cncc3c2ccn3S(=O)(=O)c2cc(F)c(N3CCN(C)CC3)c(F)c2)nc1 [Compound 3_02, 6-(1-((3,5-difluoro-4-(4-methylpiperazin-1-yl)phenyl)sulfonyl)-1H-pyrrolo[2,3-c]pyridin-4-yl)-N-methylpyridin-3-amine]	35 to 100
CNc1ccc(-c2cncc3c2ccn3S(=O)(=O)c2cc(F)c(N3CCN(C)CC3)c(F)c2)cn1 [Compound 3_03, 5-(1-((3,5-difluoro-4-(4-methylpiperazin-1-yl)phenyl)sulfonyl)-1H-pyrrolo[2,3-c]pyridin-4-yl)-N-methylpyridin-2-amine]	20 to 100
CN1CCN(c2c(F)cc(S(=O)(=O)n3ccc4c(-c5cnc(C#N)cn5)cncc43)cc2F)CC1 [Compound 3_05, 5-(1-((3,5-difluoro-4-(4-methylpiperazin-1-yl)phenyl)sulfonyl)-1H-pyrrolo[2,3-c]pyridin-4-yl)pyrazine-2-carbonitrile]	35 to 100
CN1CCN(c2c(F)cc(S(=O)(=O)n3ccc4c(-c5ccc(C#N)cn5)cncc43)cc2F)CC1 [Compound 3_06, 6-(1-((3,5-difluoro-4-(4-methylpiperazin-1-yl)phenyl)sulfonyl)-1H-pyrrolo[2,3-c]pyridin-4-yl)nicotinonitrile]	35 to 100
CNc1ccc(-c2cncc3c2ccn3S(=O)(=O)c2cc(F)c(N3CCN(C)CC3)c(F)c2)nn1 [Compound 3_07, 6-(1-((3,5-difluoro-4-(4-methylpiperazin-1-yl)phenyl)sulfonyl)-1H-pyrrolo[2,3-c]pyridin-4-yl)-N-methylpyridazin-3-amine]	35 to 100
CNc1cnc(-c2cncc3c2ccn3S(=O)(=O)c2cc(F)c(N3CCN(C)CC3)c(F)c2)nc1 [Compound 3_08, 2-(1-((3,5-difluoro-4-(4-methylpiperazin-1-yl)phenyl)sulfonyl)-1H-pyrrolo[2,3-c]pyridin-4-yl)-N-methylpyrimidin-5-amine]	20 to 100
CN1CCN(c2c(F)cc(S(=O)(=O)n3ccc4c(-c5cnc(C#N)nc5)cncc43)cc2F)CC1 [Compound 3_09, 5-(1-((3,5-difluoro-4-(4-methylpiperazin-1-yl)phenyl)sulfonyl)-1H-pyrrolo[2,3-c]pyridin-4-yl)pyrimidine-2-carbonitrile]	35 to 100
CN1CCN(c2c(F)cc(S(=O)(=O)n3ccc4c(-c5ccc(C#N)nn5)cncc43)cc2F)CC1 [Compound 3_10, 6-(1-((3,5-difluoro-4-(4-methylpiperazin-1-yl)phenyl)sulfonyl)-1H-pyrrolo[2,3-c]pyridin-4-yl)pyridazine-3-carbonitrile]	35 to 100
CC(C)N1CCN(c2c(F)cc(S(=O)(=O)n3ccc4c(-c5ccccn5)cncc43)cc2F)CC1 [Compound 3_11, 1-((3,5-difluoro-4-(4-isopropylpiperazin-1-yl)phenyl)sulfonyl)-4-(pyridin-2-yl)-1H-pyrrolo[2,3-c]pyridine]	35 to 100
O=S(=O)(c1cc(F)c(N2CCN(C3CC3)CC2)c(F)c1)n1ccc2c(-c3ccccn3)cncc21 [Compound 3_12, 1-((4-(4-cyclopropylpiperazin-1-yl)-3,5-difluorophenyl)sulfonyl)-4-(pyridin-2-yl)-1H-pyrrolo[2,3-c]pyridine]	20 to 100
CN1CCCN(c2c(F)cc(S(=O)(=O)n3ccc4c(-c5ccccn5)cncc43)cc2F)CC1 [Compound 3_13, 1-((3,5-difluoro-4-(4-methyl-1,4-diazepan-1-yl)phenyl)sulfonyl)-4-(pyridin-2-yl)-1H-pyrrolo[2,3-c]pyridine]	35 to 100
O=S(=O)(c1cc(F)c(N2CCCNCC2)c(F)c1)n1ccc2c(-c3ccccn3)cncc21 [Compound 3_14, 1-((4-(1,4-diazepan-1-yl)-3,5-difluorophenyl)sulfonyl)-4-(pyridin-2-yl)-1H-pyrrolo[2,3-c]pyridine]	35 to 100
NC1CCN(c2c(F)cc(S(=O)(=O)n3ccc4c(-c5ccccn5)cncc43)cc2F)CC1 [Compound 3_15, 1-(2,6-difluoro-4-((4-(pyridin-2-yl)-1H-pyrrolo[2,3-c]pyridin-1-yl)sulfonyl)phenyl)piperidin-4-amine]	35 to 100
CN1CC2(C1)CN(c1c(F)cc(S(=O)(=O)n3ccc4c(-c5ccccn5)cncc43)cc1F)C2 [Compound 3_16, 1-((3,5-difluoro-4-(6-methyl-2,6-diazaspiro[3.3]heptan-2-yl)phenyl)sulfonyl)-4-(pyridin-2-yl)-1H-pyrrolo[2,3-c]pyridine]	35 to 100
CN1CC2CC1CN2c1c(F)cc(S(=O)(=O)n2ccc3c(-c4ccccn4)cncc32)cc1F (stereo not shown) [Compound 3_17, 1-((3,5-difluoro-4-(5-methyl-2,5-diazabicyclo[2.2.1]heptan-2-yl)phenyl)sulfonyl)-4-(pyridin-2-yl)-1H-pyrrolo[2,3-c]pyridine]	35 to 100
